# In patent publication US8940897B2, “1,3,4-oxadiazole and 1,3,4-thiadiazole β-lactamase inhibitors” (priority 2012, dated 2015):
# Counter-ions that a name gives are not always drawn.
# Columns and labels:
# [1] = system: bacterial strains that express KPC β-lactamases; assay: Synergy MIC / standard BLI potentiation MIC assay, strains expressing KPC β-lactamases; type: cell-based; details: for at least one KPC strain and/or a better spectrum of activity against KPC strains than Avibactam; in the presence of a β-lactam
# Description: (§1) Unless otherwise indicated, the activity of the BLI compounds can be described by the MIC value obtained from a Synergy MIC assay or a BLI potentiation assay (e.g as described herein), both of which are run in the presence of a β-lactam.
# (§2) The experimental protocol was performed according to Clinical and Laboratory Standards Institute (CLSI) guidelines with modifications as described below (CLSI guidelines can be derived from the CLSI document M07-A9 published in January 2012: “Methods for Dilution Antimicrobial Susceptibility Tests for Bacteria That Grow Aerobically; Approved Standard-Ninth Edition”).
# (§3) To prepare for MIC testing, frozen glycerol stocks of clinical isolates (Klebsiella pneumoniae, Eschericia coli, Enterobacter spp, Citrobacter spp, or Pseudomonas aeruginosa) were used to streak for isolated colonies on rich, non-selective, tryptic soy agar containing 5% sheep's blood (TSAB). Frozen glycerol stocks of laboratory engineered, isogenic E. coli strains, which contain cloned β-lactamase expressing plasmids were used to streak for isolated colonies on rich, selective LB agar supplemented with 25 μg/mL tetracycline to maintain the plasmid. All strains were incubated at 37° C. for 18-24 hrs.
# (§4) On the day of testing, primary cultures were started by scraping off 5-10 colonies from the TSAB plates containing clinical strains or the tetracycline supplemented LB plates containing engineered strains. The clinical strain material was suspended in ˜5 mL of cation adjusted Mueller Hinton Broth (CAMHB) in 14 mL culture tubes. The engineered strain material was suspended in CAMHB (supplemented with 25 μg/mL tetracycline) in 14 mL culture tubes. All strains were incubated at 37° C. with aeration (200 rpm) for ˜2 hrs until the optical density at 600 nm (OD600) was ≧0.1.
# (§5) The two compound components of the assay were each diluted in CAMHB and added to the 96-well broth microdilution assay plates. 50 μL of the β-lactam was added to each well of the assay plate in 2-fold dilutions with final concentrations ranging from 128 to 0.13 μg/mL. 25 μL of the BLI compound was added to all wells in the broth microdilution plates at a final concentration of 4 μg/mL. Inoculum cultures were prepared by standardizing the primary cultures to OD600=0.1 and then adding 20 μL of the adjusted primary culture per 1 mL CAMHB for clinical strains or CAMHB (supplemented with tetracycline at 100 μg/mL) for engineered strains, so that the final inoculum density was ˜10^5 colony forming units per milliliter. Diluted inoculum cultures were used to inoculate 25 μl, per well in 96-well broth microdilution assay plates. The final volume of each well was 100 μL and contained a β-lactam at different concentrations, a BLIcompound at 4 μg/mL concentration, the bacterial culture at an OD600 of approximately 0.001 and when necessary tetracycline at 25 μg/mL.
# (§6) Plates were incubated for 18-20 hours at 37° C. with aeration (200 rpm). Following incubation, growth was confirmed visually placing plates over a viewing apparatus (stand with a mirror underneath) and then OD600 was measured using a SpectraMax 340PC384 plate reader (Molecular Devices, Sunnyvale, Calif.). Growth was defined as turbidity that could be detected with the naked eye or achieving minimum OD600 of 0.1. MIC values were defined as the lowest concentration producing no visible turbidity.
# (§7) The synergy MIC (sMIC) assay determines the concentration of the BLI required to potentiate the activity of a fixed concentration of a β-lactam antibiotic against β-lactamase producing bacterial strains. The experimental protocol was performed according to Clinical and Laboratory Standards Institute (CLSI) guidelines with modifications as described below (CLSI guidelines can be derived from the CLSI document M07-A9 published in January 2012: “Methods for Dilution Antimicrobial Susceptibility Tests for Bacteria That Grow Aerobically; Approved Standard-Ninth Edition”). […]
# [2] = system: bacterial strains that express the class D cephalosporinase OXA-15; assay: Synergy MIC / standard BLI potentiation MIC assay, strains expressing OXA-15;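 note: more active means a lower MIC or sMIC than Avibactam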; type: cell-based, E. coli; details: in the presence of a β-lactam; comparator Avibactam (CCC)
# Description: as §1, §2, §3, §4, §5, §6, §7
SMILES,activity against bacterial strains that express KPC β-lactamase compared with Avibactam [1],activity against bacterial strains that express OXA-15 β-lactamase compared with Avibactam [2]
"N[C@H]1C[C@@H](Cc2nnc([C@@H]3CC[C@@H]4CN3C(=O)N4OS(=O)(=O)O)o2)C1 [Compound 728, (2S,5R)-2-(5-(((1s,3R)-3-aminocyclobutyl)methyl)-1,3,4-oxadiazol-2-yl)-7-oxo-1,6-diazabicyclo[3.2.1]octan-6-yl hydrogen sulfate]",more active than Avibactam,more active than Avibactam
"N[C@@H]1CC[C@H](c2nnc([C@@H]3CC[C@@H]4CN3C(=O)N4OS(=O)(=O)O)o2)C1 [Compound 729, (2S,5R)-2-(5-((1S,3R)-3-aminocyclopentyl)-1,3,4-oxadiazol-2-yl)-7-oxo-1,6-diazabicyclo[3.2.1]octan-6-yl hydrogen sulfate]",more active than Avibactam,more active than Avibactam
"N=C(N)NCC(O)Cc1nnc([C@@H]2CC[C@@H]3CN2C(=O)N3OS(=O)(=O)O)o1 (stereo partly drawn) [Compound 730, (2S,5R)-2-(5-(3-guanidino-2-hydroxypropyl)-1,3,4-oxadiazol-2-yl)-7-oxo-1,6-diazabicyclo[3.2.1]octan-6-yl hydrogen sulfate]",more active than Avibactam,more active than Avibactam
"N=C(N)NC[C@@H](O)c1nnc([C@@H]2CC[C@@H]3CN2C(=O)N3OS(=O)(=O)O)o1 [Compound 731, (2S,5R)-2-(5-((R)-2-guanidino-1-hydroxyethyl)-1,3,4-oxadiazol-2-yl)-7-oxo-1,6-diazabicyclo[3.2.1]octan-6-yl hydrogen sulfate]",more active than Avibactam,more active than Avibactam
"N=C(N)NC[C@H](O)c1nnc([C@@H]2CC[C@@H]3CN2C(=O)N3OS(=O)(=O)O)o1 [Compound 732, (2S,5R)-2-(5-((S)-2-guanidino-1-hydroxyethyl)-1,3,4-oxadiazol-2-yl)-7-oxo-1,6-diazabicyclo[3.2.1]octan-6-yl hydrogen sulfate]",more active than Avibactam,more active than Avibactam
"CNCCCc1nnc([C@@H]2CC[C@@H]3CN2C(=O)N3OS(=O)(=O)O)o1 [Compound 734, (2S,5R)-2-(5-(3-(methylamino)propyl)-1,3,4-oxadiazol-2-yl)-7-oxo-1,6-diazabicyclo[3.2.1]octan-6-yl hydrogen sulfate]",more active than Avibactam,more active than Avibactam
"NCCCCc1nnc([C@@H]2CC[C@@H]3CN2C(=O)N3OS(=O)(=O)O)o1 [Compound 735, (2S,5R)-2-(5-(4-aminobutyl)-1,3,4-oxadiazol-2-yl)-7-oxo-1,6-diazabicyclo[3.2.1]octan-6-yl hydrogen sulfate]",more active than Avibactam,more active than Avibactam
"O=C1N2C[C@@H](CC[C@H]2c2nnc(CCNCCO)o2)N1OS(=O)(=O)O [Compound 736, (2S,5R)-2-(5-(2-((2-hydroxyethyl)amino)ethyl)-1,3,4-oxadiazol-2-yl)-7-oxo-1,6-diazabicyclo[3.2.1]octan-6-yl hydrogen sulfate]",more active than Avibactam,more active than Avibactam
"CC(C)(N)Cc1nnc([C@@H]2CC[C@@H]3CN2C(=O)N3OS(=O)(=O)O)o1 [Compound 737, (2S,5R)-2-(5-(2-amino-2-methylpropyl)-1,3,4-oxadiazol-2-yl)-7-oxo-1,6-diazabicyclo[3.2.1]octan-6-yl hydrogen sulfate]",more active than Avibactam,more active than Avibactam
"N=C(N)Nc1nnc([C@@H]2CC[C@@H]3CN2C(=O)N3OS(=O)(=O)O)o1 [Compound 738, (2S,5R)-2-(5-guanidino-1,3,4-oxadiazol-2-yl)-7-oxo-1,6-diazabicyclo[3.2.1]octan-6-yl hydrogen sulfate]",more active than Avibactam,more active than Avibactam
"N=C(N)NC1(Cc2nnc([C@@H]3CC[C@@H]4CN3C(=O)N4OS(=O)(=O)O)o2)CC1 [Compound 739, (2S,5R)-2-(5-((1-guanidinocyclopropyl)methyl)-1,3,4-oxadiazol-2-yl)-7-oxo-1,6-diazabicyclo[3.2.1]octan-6-yl hydrogen sulfate]",more active than Avibactam,more active than Avibactam
"O=C1N2C[C@@H](CC[C@H]2c2nnc([C@H]3[C@@H]4CNC[C@@H]43)o2)N1OS(=O)(=O)O [Compound 740, (2S,5R)-2-(5-(3-azabicyclo[3.1.0]hexan-6-yl)-1,3,4-oxadiazol-2-yl)-7-oxo-1,6-diazabicyclo[3.2.1]octan-6-yl hydrogen sulfate]",more active than Avibactam,more active than Avibactam
"N=C(N)N1CC(Cc2nnc([C@@H]3CC[C@@H]4CN3C(=O)N4OS(=O)(=O)O)o2)C1 [Compound 741, (2S,5R)-2-(5-((1-carbamimidoylazetidin-3-yl)methyl)-1,3,4-oxadiazol-2-yl)-7-oxo-1,6-diazabicyclo[3.2.1]octan-6-yl hydrogen sulfate]",more active than Avibactam,more active than Avibactam
"O=C1N2C[C@@H](CC[C@H]2c2nnc(CCC3CNC3)o2)N1OS(=O)(=O)O [Compound 742, (2S,5R)-2-(5-(2-(azetidin-3-yl)ethyl)-1,3,4-oxadiazol-2-yl)-7-oxo-1,6-diazabicyclo[3.2.1]octan-6-yl hydrogen sulfate]",more active than Avibactam,more active than Avibactam
"O=C1N2C[C@@H](CC[C@H]2c2nnc(CCCC3CNC3)o2)N1OS(=O)(=O)O [Compound 743, (2S,5R)-2-(5-(3-(azetidin-3-yl)propyl)-1,3,4-oxadiazol-2-yl)-7-oxo-1,6-diazabicyclo[3.2.1]octan-6-yl hydrogen sulfate]",more active than Avibactam,more active than Avibactam
"O=C1N2C[C@@H](CC[C@H]2c2nnc(COC3CNC3)o2)N1OS(=O)(=O)O [Compound 744, (2S,5R)-2-(5-((azetidin-3-yloxy)methyl)-1,3,4-oxadiazol-2-yl)-7-oxo-1,6-diazabicyclo[3.2.1]octan-6-yl hydrogen sulfate]",more active than Avibactam,more active than Avibactam
